What was measured:
[1] = test system: human DNA viruses (HSV, ADV) and RNA viruses (CVB1, EV71); conditions: each component used alone; cited from earlier work
[2] = test system: ES strain of lymphomatosis virus; conditions: US 3,429,971 table 2; cited from earlier work
[3] = test system: Human Papilloma Virus (HPV); experiment: Comparative tests: cervical lesions caused by HPV, 44 female patients, observation after 10 days; format: in vivo; conditions: undiluted composition
Procedure: The hereunder mentioned comparative tests are aimed to establish observation(s) after 10 days on 44 female human patients by Controlled Clinical Trial on Cervical Lesions (wounds) caused by the Human Papilloma Virus (HPV) which is a double stranded DNA non enveloped virus. […] In order to establish the non-activity of possible placebo's to be used in the clinical trial, 44 HPV infected patients were treated with a one-time dose of Placebos compositions.

adenovirus type 6 = conditions: in vitro; cited from earlier work

Row | Molecule | antiviral activity [1] | also measured
1 | CC12CCC(C1)C(C)(C)C2=O (stereo not shown) [fenchone] | No activity | –
2 | CC(C)=CCC/C(C)=C/CO [geraniol] | No activity | –
3 | C=CC(=C)CCC=C(C)C [beta-myrcene] | No activity | –
4 | CC(C)=CCC/C(C)=C/CO [Trans-2,6-dimethyl-2,6,octadiene-8-ol, (2E)-3,7-dimethylocta-2,6-dien-1-ol] | – | No. cures [2]: 0
5 | C=C1CC/C=C(\C)CC[C@@H]2[C@@H]1CC2(C)C [beta-caryophylene] | No activity | –
6 | C=C(C)[C@H](CO)CC=C(C)C [Placebo 21, Lavendulol] | – | Observation(s) after 10 days: regression of lesions on the surface of the cervix [3]: No regression of lesions
7 | CC12CCC(CC1)C(C)(C)O2 [cineole] | No activity | –
8 | C=C(C)C1CC=C(C)C(=O)C1 (stereo not shown) [carvone] | No activity | antiviral activity against adenovirus type 6 (adenovirus type 6): antiviral activity
9 | CC(C)=CCCC(C)=CCCC(C)=CCO [farnesol] | No activity | –
10 | CC(C)[C@]12CC(=O)[C@H](C)[C@H]1C2 [alpha-thujone] | No activity | –
11 | (cis+trans)-1,2-(+)-Limonene oxide [Placebo 18] | – | Observation(s) after 10 days: regression of lesions on the surface of the cervix [3]: No regression of lesions
12 | (R)-Carvone + (S)-Carvone [Placebo 3] | – | Observation(s) after 10 days: regression of lesions on the surface of the cervix [3]: No regression of lesions
